# Assays:
# Assay type in all cases: biochemical, canine
# PDE I [1] = assay: phosphodiesterase inhibition, PDE I (peak I PDE); conditions: for IC50: peak I PDE
# Source text: (§1) Multiple isozymic forms of cyclic nucleotide phosphodiesterase (PDE) exist in most tissues. […] A "low Km" cGMP form of PDE (also referred to as peak I PDE) also has been identified. Increases in cAMP and cGMP will relax both vascular smooth and bronchial smooth muscle. Selective PDE isozyme inhibition represents a novel subcellular mechanism by which increses in cAMP or cGMP and subsequent vaso- or broncho-relaxation may be achieved. Moreover, a component of positive inotropy may be retained, dependent upon the isozyme or tissue source specificity of an inhibitor. Thus, development of PDE isozyme inhibitors represents novel approaches for the discovery of agents useful for treating hypertension, congestive heart failure or asthma. For example, compounds having essentially high PDE III inhibitory activity are expected to have cardiotonic and vasodilatory (antihypertensive) activity. PDE isozymes (peak I and III) are isolated from canine aortic smooth, ventricular or tracheal smooth muscle sources by DEAE - cellulose column chromatography. Inhibition of both peaks by a putative inhibitor from any of these sources is quantitated. If ≥50% inhibition is detected at 30 μM, then an IC50 value and corresponding 95% confidence limits for both peaks is determined.
# (§2) The procedures for the separation of the isozymes of PDE from animal tissue and the testing of the compounds of the invention for phosphodiesterase inhibition are essentially those described by Weishaar et al., Biochem. Pharmacol. 35:787-800 (1986) and Thompson et al., Adv. Cyclic Nucleotide Res. 10:69-92. Initial screening of test compounds with both peak I and peak III PDE isozymes is done at a concentration of 10, 30 or 100 μm, and each assay is performed in triplicate for each inhibitor. The IC50 values (concentration causing 50% inhibition) are then calculated from concentration-response curves as described by Tallarida and Murray, Manual of Pharmacologic Calculations with Computer Programs, Procedure 8, Graded Dose-Response, pp. 14-19, Springer-Verlag, New York, 1981.
# PDE III [2] = target: T1, PDE III (Canis lupus familiaris, UniProt A0A8I3NYE0); assay: phosphodiesterase inhibition, PDE III (peak III PDE)
# T1 construct: isolated from canine aortic smooth, ventricular or tracheal smooth muscle sources; from tissue; host or cells: canine aortic smooth, ventricular or tracheal smooth muscle; DEAE-cellulose peak III
# T1 sequence (A0A8I3NYE0 1-1135): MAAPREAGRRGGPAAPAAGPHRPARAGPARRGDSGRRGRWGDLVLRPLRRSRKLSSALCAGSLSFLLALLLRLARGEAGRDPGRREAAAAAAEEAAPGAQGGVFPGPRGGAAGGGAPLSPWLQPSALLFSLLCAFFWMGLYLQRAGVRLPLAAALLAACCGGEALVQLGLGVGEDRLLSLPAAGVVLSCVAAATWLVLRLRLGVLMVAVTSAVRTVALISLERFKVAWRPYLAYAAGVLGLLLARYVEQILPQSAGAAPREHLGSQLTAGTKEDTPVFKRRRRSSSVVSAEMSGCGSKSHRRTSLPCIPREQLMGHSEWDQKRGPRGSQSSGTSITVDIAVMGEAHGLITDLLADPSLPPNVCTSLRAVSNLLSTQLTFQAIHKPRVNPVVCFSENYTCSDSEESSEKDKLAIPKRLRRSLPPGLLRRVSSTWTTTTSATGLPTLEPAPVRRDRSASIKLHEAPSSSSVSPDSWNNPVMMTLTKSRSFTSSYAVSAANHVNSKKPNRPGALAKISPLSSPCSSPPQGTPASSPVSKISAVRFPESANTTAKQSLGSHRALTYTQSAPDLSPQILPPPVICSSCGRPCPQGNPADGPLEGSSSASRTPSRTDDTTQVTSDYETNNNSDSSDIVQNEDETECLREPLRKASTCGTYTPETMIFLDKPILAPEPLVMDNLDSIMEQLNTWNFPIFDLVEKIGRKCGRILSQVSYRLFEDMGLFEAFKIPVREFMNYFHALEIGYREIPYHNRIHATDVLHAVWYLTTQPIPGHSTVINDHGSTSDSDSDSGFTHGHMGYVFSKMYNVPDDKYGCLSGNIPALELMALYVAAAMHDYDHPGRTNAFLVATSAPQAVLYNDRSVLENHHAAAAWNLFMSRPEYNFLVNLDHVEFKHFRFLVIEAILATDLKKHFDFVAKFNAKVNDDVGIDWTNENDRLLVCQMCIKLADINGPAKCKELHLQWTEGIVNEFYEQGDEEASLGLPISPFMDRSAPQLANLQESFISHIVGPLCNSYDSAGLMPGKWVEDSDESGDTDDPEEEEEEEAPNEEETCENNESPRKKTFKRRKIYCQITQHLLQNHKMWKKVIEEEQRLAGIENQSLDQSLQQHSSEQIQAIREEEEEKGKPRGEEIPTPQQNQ
# Source text: as §1, §2
# PDE I [3] = assay: phosphodiesterase inhibition, PDE I (peak I PDE)
# PDE III [4] = target: T1, PDE III; assay: phosphodiesterase inhibition, PDE III (peak III PDE); conditions: read-out: Percent Inhibition PDE III
IC50 (PDE I [1]),IC50 (PDE III [2]),Compound,also measured
52900 nM,23 nM,"O=c1[nH]c2cc(-c3ccncc3)c(C(F)(F)F)nc2[nH]1 [1(e), 1,3-Dihydro-6-(4-pyridinyl)-5-trifluoromethyl-2H-imidazo[4,5-b]pyridin-2-one]",
,29 nM,"O=c1[nH]c2cc(-c3cc[n+]([O-])cc3)c(C(F)(F)F)nc2[nH]1 [1(f), 1,3-Dihydro-6-(4-pyridinyl)-5-trifluoromethyl-2H-imidazo[4,5-b]pyridin-2-one N-(py)-oxide]",Percent Inhibition PDE I (PDE I [3]; at 1 μM): 0%
12000 nM,1800 nM,"O=c1[nH]c2cc(-c3ccncc3)c(C(F)(F)C(F)(F)F)nc2[nH]1 [2(d), 1,3-Dihydro-6-(4-pyridinyl)-5-pentafluoroethyl-2H-imidazo[4,5-b]pyridin-2-one]",
,,"O=c1[nH]c2cc(-c3ccnc4ccccc34)c(C(F)(F)F)nc2[nH]1 [3(e), 1,3-Dihydro-6-(4-quinolinyl)-5-trifluoromethyl-2H-imidazo[4,5-b]pyridine-2-one]",Percent Inhibition PDE I (PDE I [1]; at 100 μM): 4%; inhibition at 1 µM (PDE III [4]): 9%
,270 nM,"Cc1nc2[nH]c(=O)[nH]c2cc1-c1ccccc1 [4(c), 1,3-Dihydro-5-methyl-6-phenyl-2H-imidazo[4,5-b]pyridin-2-one]",Percent Inhibition PDE I (PDE I [3]; at 1000 μM): 38%
,9 nM,"Cc1nc2[nH]c(=O)[nH]c2cc1-c1ccc([N+](=O)[O-])cc1 [Example 5, 1,3-Dihydro-5-methyl-6-(4-nitrophenyl)-2H-imidazo[4,5-b]pyridin-2-one]",Percent Inhibition PDE I (PDE I [3]; at 300 μM): 35%
45000 nM,500 nM,"Cc1nc2[nH]c(=O)[nH]c2cc1-c1ccc(N)cc1 [Example 6, 6-(4-Aminophenyl)-1,3-dihydro-5-methyl-2H-imidazo[4,5-b]pyridin-2-one]",
63600 nM,630 nM,"Cc1nc2[nH]c(=O)[nH]c2cc1-c1ccc(NC(=O)C(F)(F)F)cc1 [Example 7, 1,3-Dihydro-5-methyl-6-[4-(trifluoroacetylamino)phenyl]-2H-imidazo[4,5-b]pyridin-2-one]",
,620 nM,"CC(=O)Nc1ccc(-c2cc3[nH]c(=O)[nH]c3nc2C)cc1 [Example 8, 6-[4-(Acetylamino)phenyl]-1,3-dihydro-5-methyl-2H-imidazo[4,5-b]pyridin-2-one]",Percent Inhibition PDE I (PDE I [1]; at 30 μM): 22%
45000 nM,470 nM,"Cc1nc2[nH]c(=O)[nH]c2cc1-c1ccc(NS(C)(=O)=O)cc1 [Example 9, 1,3-Dihydro-6-[4-(methanesulfonylamino)phenyl]-5-methyl-2H-imidazo[4,5-b]pyridin-2-one]",
9000 nM,94 nM,"CCCCS(=O)(=O)Nc1ccc(-c2cc3[nH]c(=O)[nH]c3nc2C)cc1 [Example 10, 6-[4-(Butanesulfonylamino)phenyl]-1,3-dihydro-5-methyl-2H-imidazo[4,5-b]pyridin-2-one]",
,,"CCCCC(=O)Nc1ccc(-c2cc3[nH]c(=O)[nH]c3nc2C)cc1 [Example 11, 6-[4-(Butanecarbonylamino)phenyl]-1,3-dihydro-5-methyl-2H-imidazo[4,5-b]pyridin-2-one]",Percent Inhibition PDE I (PDE I [3]; at 1 μM): 0%; inhibition at 1 µM (PDE III [4]): 37%
,,"Cc1ccc(S(=O)(=O)Nc2ccc(-c3cc4[nH]c(=O)[nH]c4nc3C)cc2)cc1 [Example 12, 1,3-Dihydro-5-methyl-6-[4-(p-toluenesulfonylamino)phenyl]-2H-imidazo[4,5-b]pyridin-2-one]",Percent Inhibition PDE I (PDE I [3]; at 1 μM): 13%; inhibition at 1 µM (PDE III [4]): 64%
5600 nM,53 nM,"CCCCCCS(=O)(=O)Nc1ccc(-c2cc3[nH]c(=O)[nH]c3nc2C)cc1 [Example 13, 1,3-Dihydro-6-[4-(hexanesulfonylamino)phenyl]-5-methyl-2H-imidazo[4,5-b]pyridin-2-one]",
1600 nM,55 nM,"Cc1nc2[nH]c(=O)[nH]c2cc1-c1ccc(NS(=O)(=O)c2cccc3cccnc23)cc1 [Example 14, 1,3-Dihydro-6-[4-(8-quinolinylsulfonylamino)phenyl]-5-methyl-2H-imidazo[4,5-b]pyridin-2-one]",
319000 nM,104 nM,"CCCNC(=O)Nc1ccc(-c2cc3[nH]c(=O)[nH]c3nc2C)cc1 [Example 15, 1,3-Dihydro-6-[4-(N'-propylureido)phenyl]-5-methyl-2H-imidazo[4,5-b]pyridin-2-one]",
